Laboratory results reported in patent US9217007B2, “Platinum anticancer agents” (priority 2011, dated 2015).
Where two headings read alike, the source gives them in different places.

What was measured:
[1] = test system: RKO colon cancer cell line; experiment: Cytotoxicity in colon cancer cell line RKO with and without cimetidine; type: cell-based
Procedure: (§1) Platinum uptake and platinum-DNA adduct formation was then measured in these transfected cell lines. In some cases, chemical inhibitors of OCT1 were used. In general, we used disopyramide (150 μM). […] In some cases, cimetidine (3 mM) was used as a general OCT inhibitor. Cytotoxicity of some of the leads was determined in colon cancer cell lines. Described below in some detail are the methods for these studies.
(§2) HEK293 cell lines, stably expressing hOCT1, hOCT2 and hOCT3. The following colon cancer cell lines were also used: HCT116, RKO, DLD, HT29 and SW620 purchased from American Type Tissue Culture collection.
(§3) After overnight incubation, the platinum compound with or without an OCT inhibitor (disopyramide) was then be added to the culture medium to various concentrations. After exposure to the drug for 7 hours, the drug-containing medium was replaced with fresh, drug-free medium and the incubation was continued for 72 hours.

[2] = test system: HT29 colon cancer cell line; experiment: Cytotoxicity in colon cancer cell line HT29 with and without cimetidine; type: cell-based
Procedure: as §1, §2, §3

[3] = test system: HCT116 colon cancer cell line; experiment: Cytotoxicity in colon cancer cell line HCT116 with and without cimetidine; type: cell-based
Procedure: as §1, §2, §3

[4] = test system: Kelly neuroblastoma cell line; experiment: Toxicity against neuroblastoma cell line Kelly; type: cell-based
Procedure: (§4) Compounds SM-73 and SM-85 are assayed against an array of neuroblastoma cell lines.

[5] = test system: SKNMC neuroblastoma cell line; experiment: Toxicity against neuroblastoma cell line SKNMC; type: cell-based
Procedure: as §4

[6] = test system: NB1691 neuroblastoma cell line; experiment: Toxicity against neuroblastoma cell line NB1691; type: cell-based
Procedure: as §4

[7] = test system: SKNSH neuroblastoma cell line; experiment: Toxicity against neuroblastoma cell line SKNSH; type: cell-based
Procedure: as §4

[8] = test system: DLD colon cancer cell line; experiment: Cytotoxicity in colon cancer cell line DLD with and without cimetidine; type: cell-based
Procedure: as §1, §2, §3

[9] = test system: LANS neuroblastoma cell line; experiment: Toxicity against neuroblastoma cell line LANS; type: cell-based
Procedure: as §4

[10] = test system: SW620 colon cancer cell line; experiment: Cytotoxicity in colon cancer cell line SW620 with and without cimetidine; type: cell-based
Procedure: as §1, §2, §3

[11] = Rate of inactivation of platinums by glutathione; type: physicochemical; details: platinum drug 100 μM; [GSH] 6.75 mM; [NaCl] 4.62; absorption at 260 nm
Procedure: Platinum-based compound as described herein at a 100 μM concentration was reacted with physiological concentration of GSH and the absorption at 260 nm was measured to monitor the progress of the reaction. Absorption as a function of time (0≦t≦1440 min) for platinum concentration of zero was subtracted from the absorption at each platinum concentration. Initial rates were calculated from the early time points as change in absorption over change in time.
One major pathway by which these platinum drugs get inactivated in vivo is by reaction with glutathione (GSH). We mimicked this reaction with GSH in vitro using physiological concentrations of GSH and salts. Increase in absorption at 260 nm over period of time was monitored for progress of the reaction and initial rates were calculated from the early time points in terms of the change in absorption over change in time.

[12] = test system: HEK-hOCT3; experiment: MTT cytotoxicity assay in HEK293 stably transfected with human OCT3; type: cell-based
Source text: HEK293 cell lines, stably expressing hOCT1, hOCT2 and hOCT3.

[13] = test system: SHEP neuroblastoma cell line; experiment: Toxicity against neuroblastoma cell line SHEP; type: cell-based
Procedure: as §4

[14] = test system: SHSY5Y neuroblastoma cell line; experiment: Toxicity against neuroblastoma cell line SHSY5Y; type: cell-based
Procedure: as §4

[15] = test system: HEK-MOCK (untransfected HEK293 cells); experiment: MTT cytotoxicity assay in untransfected HEK293 cells; type: cell-based, human; details: 7 h drug exposure then 72 h drug-free
Procedure: (§5) Evaluation of compounds was carried out in an in-vitro cytotoxicity assay, involving a comparison between the effect of the platinum complex on human embryonic kidney cells (HEK293) transfected with human OCT1 (HEK-hOCT1) and OCT2 (HEK-hOCT2) versus those that are not transfected.
as §3
as §5, with “Evaluation of all three classes” for “Evaluation”

[16] = test system: HEK-hNET; experiment: Toxicity toward HEK cells stably transfected with Norepinephrine Transporter; type: cell-based, human; details: selectivity HEK-EV vs HEK-hNET
Procedure: The term “resistance factor” is a measure of selectivity conferred upon the platinum-based compound by the inclusion of ligands that promote recognition by NET.
as §3

[17] = test system: neuroblastoma xenografts; experiment: Antitumor efficacy against neuroblastoma xenografts in mice; type: in vivo; details: compared to cisplatin (FIG. 8)
[18] = test system: HEK293 transfected with human OCT1 (HEK-hOCT1); experiment: MTT cytotoxicity assay in HEK293 stably transfected with human OCT1; details: read-out: IC50 HEK-hOCT1; HEK293 stably transfected with human OCT1; MTT, 7 h exposure then 72 h
Procedure: as §5, §2, §3
as §5, with “Evaluation of all three classes” for “Evaluation”

[19] = test system: HEK293 transfected with human OCT2 (HEK-hOCT2); experiment: MTT cytotoxicity assay in HEK293 stably transfected with human OCT2; details: read-out: IC50 HEK-hOCT2; HEK293 stably transfected with human OCT2; MTT, 7 h exposure then 72 h
Procedure: as §5, §2, §3
as §5, with “Evaluation of all three classes” for “Evaluation”

[20] = test system: NET-expressing HEK cells; experiment: Uptake of platinum compounds into NET-expressing HEK cells vs empty vector HEK cells; type: cell-based, human
Source text: The success of our targeting strategy can be gauged in-vitro also through comparing the uptake of the platinum complex into cells. The actual effects of this increased uptake can in turn be ascertained and quantified through comparison of DNA-binding of the platinum complexes.
Accumulation was normalized to protein content.

[21] = Toxicity evaluation of treated mice (CBC, kidney and liver function, ototoxicity); details: mouse, in vivo
Procedure: An evaluation is being conducted in various body tissues/plasma to determine toxicity.
The SM-73 treated mice group was also evaluated for ototoxicity.

[22] = test system: DNA in HEK cells; experiment: DNA-binding of the platinum agents in HEK cells; type: cell-based, human; details: compared to cisplatin
Procedure: After incubation, genomic DNA was isolated from the cell pellets using Wizard® Genomic DNA Purification Kit (Promega, Madison, Wis.) following the manufacturer's instructions. The genomic DNA was used for determination of platinum (ICP-MS) and DNA content (absorption spectrometry at 260 nm). Platinum-DNA adduct formation was expressed as amount of platinum per amount of DNA.

[23] = test system: OCT1 (human, expressed in the cells; OCT1-dependent cytotoxicity); experiment: MTT cytotoxicity assay in HEK293 stably transfected with human OCT1; details: human
Procedure: as §5, §2, §3
as §5, with “Evaluation of all three classes” for “Evaluation”

[24] = test system: OCT2 (human, expressed in the cells; OCT2-dependent cytotoxicity); experiment: MTT cytotoxicity assay in HEK293 stably transfected with human OCT2; details: human
Procedure: as §5, §2, §3
as §5, with “Evaluation of all three classes” for “Evaluation”

[25] = RK0, absence of cimetidine, read-out: IC50
[26] = RK0, cimetidine 3 mM, read-out: IC50 (in presence of cimetidine)
[27] = HT29, absence of cimetidine, read-out: IC50
[28] = HT29, cimetidine 3 mM, read-out: IC50 (in presence of cimetidine)
[29] = HCT116, absence of cimetidine, read-out: IC50
[30] = HCT116, cimetidine 3 mM, read-out: IC50 (in presence of cimetidine)
[31] = absence of cimetidine, read-out: IC50
[32] = cimetidine 3 mM, read-out: IC50 (in presence of cimetidine)
[33] = SW620, absence of cimetidine, read-out: IC50
[34] = SW620, cimetidine 3 mM, read-out: IC50 (in presence of cimetidine)

| Structure (SMILES) | IC50 [1, 25] [µM] | IC50 [1, 26] [µM] | IC50 [2, 27] [µM] | IC50 [2, 28] [µM] | IC50 [3, 29] [µM] | IC50 [3, 30] [µM] | IC50 [4] [µM] | IC50 [5] [µM] | IC50 [6] [µM] | IC50 [7] [µM] | IC50 [8, 31] [µM] | IC50 [8, 32] [µM] | IC50 [9] [µM] | IC50 [10, 33] [µM] | IC50 [10, 34] [µM] | Initial Rate of reaction with glutathione [11] [Absorption unit/hr] | IC50 [12] [µM] | IC50 [13] [µM] | IC50 [14] [µM] | IC50 [15] [µM] | further results |
| --- | --- | --- | --- | --- | --- | --- | --- | --- | --- | --- | --- | --- | --- | --- | --- | --- | --- | --- | --- | --- | --- |
| O=C1[O][Pt]2([NH][C@@H]3CCCC[C@H]3[NH]2)[O]C1=O [Oxaliplatin, reference compound] | 2.9 ± 0.77 | 41.7 | 13.2 ± 3.3 | 61.2 | 6.14 ± 1.8 | 66.5 | 20.4 | 19.9 | 29.4 | 15.5 | 21.5 ± 5.3 | 151 | 15.9 | 7.16 ± 3.59 | 40 | 0.0909 | 1.32 | 24.8 | 18.8 | 1.62 |  |
| N.N.[Cl][Pt][Cl] [Cisplatin] |  |  |  |  |  |  | 19.9 | 9.63 | 12.4 | 3.77 |  |  | 6.16 |  |  | 0.1173 | 4.84 | 24.5 | 18.6 | 2.62 | Resistance Factor [16]: 1.8 |
| [NH3+][Pt-2]([Cl])([Cl])[NH+]1CCN(c2ccccc2)CC1 [SM73] | 19.6 ± 1.17 | 75.8 | 14.5 ± 8.54 | 109 | 18.3 ± 2.28 | 71.2 | 13.1 | 13.6 | 9.72 | 3.58 | 48.9 ± 8.5 | 195 | 5.24 | 33 ± 5.27 | 147 | 0.1132 |  | 16.5 | 13.8 | 12.3 ± 0.759 | Resistance Factor ([1]; RK0, ratio of IC50 in presence and absence of cimetidine): 3.87; Resistance Factor ([2]; HT29, ratio of IC50 in presence and absence of cimetidine): >7; Resistance Factor [16]: 5.5; Resistance Factor ([3]; HCT116, ratio of IC50 in presence and absence of cimetidine): 3.88; antitumor efficacy against neuroblastoma xenografts [17]: retains the antitumor efficacy of cisplatin to a significant extent; IC50 [18]: 0.036 ± 0.004 µM; IC50 [19]: 0.005 ± 0.001 µM; Resistance Factor ([8]; ratio of IC50 in presence and absence of cimetidine): 3.98; selectivity for accumulation into NET-expressing HEK cells [20]: 3.25 fold; Resistance Factor ([10]; SW620, ratio of IC50 in presence and absence of cimetidine): 4.45; ototoxicity [21]: No ototoxicity was observed; DNA-binding [22]: increased DNA-binding |
| [NH2][Pt]([NH2])([Cl])[N]1CCN(c2ccccc2)CC1 [SM78] |  |  |  |  |  |  |  |  |  |  |  |  |  |  |  |  |  |  |  |  | IC50 at 7 h ([23]; IC50 HEK-hOCT1, HEK293 stably transfected with human OCT1, MTT, 7 h exposure then 72 h): 0.988 ± 0.03 µM; IC50 at 7 h ([24]; IC50 HEK-hOCT2, HEK293 stably transfected with human OCT2, MTT, 7 h exposure then 72 h): 2.35 ± 0.313 µM |
| [NH2][Pt]([NH2])([Cl])[N]1CCN(c2ccccc2)CC1 [SM71] |  |  |  |  |  |  |  |  |  |  |  |  |  |  |  |  |  |  |  |  | IC50 [18]: 0.745 ± 0.003 µM; IC50 [19]: 1.26 ± 0.319 µM |
| [NH2][Pt]([Cl])([Cl])[N]1CCN(c2ccc(F)cc2)CC1 [SM85] |  |  |  |  |  |  |  |  |  |  |  |  |  |  |  | 0.1037 |  |  |  |  | IC50 at 7 h [23]: 0.071 ± 0.014 µM; IC50 at 7 h [24]: 0.208 ± 0.035 µM; DNA-binding [22]: increased DNA-binding |
